Measurements taken from patent publication US5994334A, “Androgen synthesis inhibitors” (priority 1997, dated 1999).
Entries after “also recorded” stand apart in the source; their conditions may differ. Where two headings read alike, the source gives them in different places.

Legend:
[1] = target: T1, human 17α-hydroxylase/C17,20-lyase (Homo sapiens, UniProt P05093); assay: Inhibition of human testicular 17α-hydroxylase/C17,20-lyase (enzyme complex as a whole); type: biochemical; conditions: for inhibition of 17α-hydroxylase/C17,20-lyase (in words): NI = no inhibition
T1 construct: incubating human testicular microsomes; from tissue; host or cells: human testis, microsomes
T1 sequence (P05093 1-508): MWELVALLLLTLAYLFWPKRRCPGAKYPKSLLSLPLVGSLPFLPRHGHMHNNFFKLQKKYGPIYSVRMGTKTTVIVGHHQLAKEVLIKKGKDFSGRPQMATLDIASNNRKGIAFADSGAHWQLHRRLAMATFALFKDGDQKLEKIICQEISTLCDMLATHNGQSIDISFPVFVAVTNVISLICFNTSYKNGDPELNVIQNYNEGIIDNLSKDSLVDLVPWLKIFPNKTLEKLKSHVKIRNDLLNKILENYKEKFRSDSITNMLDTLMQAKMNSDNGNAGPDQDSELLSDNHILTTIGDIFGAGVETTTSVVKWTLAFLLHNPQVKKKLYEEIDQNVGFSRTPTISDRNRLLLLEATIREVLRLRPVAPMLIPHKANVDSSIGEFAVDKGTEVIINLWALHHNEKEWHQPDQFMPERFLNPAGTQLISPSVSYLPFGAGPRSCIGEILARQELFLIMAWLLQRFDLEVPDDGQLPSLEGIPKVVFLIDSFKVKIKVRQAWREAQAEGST
Experimental: (§1) The conversion of radiolabeled pregnenolone to 17α-hydroxypregnenolone and DHEA by 17α-hydroxylase/C17,20 -lyase was measured by incubating human testicular microsomes with different concentration of test compounds. Reverse phase HPLC was used to separate and accurately quantify the amount of substrate and metabolites. The 17α-hydroxylase and C17,20 -lyase activities were calculated separately. The activity of 17α-hydroxylase was calculated from the conversion of pregnenolone to 17α-hydroxypregnenolone and DHEA and the activity of C17,20 -lyase was based on the conversion of pregnenolone to DHEA. Although 17α-hydroxypregnenolone is the substrate converted to DHEA by C17,20 -lyase, it has been reported that this 17α-hydroxy intermediate is not released from the enzyme binding site during conversion (Nakajin et al., 1981a,b). Also, there are species differences in substrate requirements. Pregnenolone is the natural substrate rather than progesterone for human testicular 17α-hydroxylase and C17,20 -lyase. Therefore, pregnenolone was used as substrate for measuring the activity of this enzyme complex.

[2] = target: T2, Human Testicular 17α-Hydroxylase (Homo sapiens, UniProt P05093); assay: Inhibition of human testicular 17α-hydroxylase (pregnenolone substrate, testicular microsomes); type: biochemical
T2 construct: incubating human testicular microsomes; from tissue; host or cells: human testis, microsomes
T2 sequence (P05093 1-508): T1 sequence (P05093 1-508)
Experimental: as §1

[3] = target: T3, Human Testicular C17,20-lyase (Homo sapiens, UniProt P05093); assay: Inhibition of human testicular C17,20-lyase (pregnenolone substrate, testicular microsomes); type: biochemical
T3 construct: incubating human testicular microsomes; from tissue; host or cells: human testis, microsomes
T3 sequence (P05093 1-508): T1 sequence (P05093 1-508)
Experimental: as §1

[4] = target: T4, Human Prostatic 5α-Reductase (Homo sapiens, UniProt P31213); assay: Inhibition of human prostatic 5α-reductase (prostatic microsomes, [3H]testosterone); conditions: for inhibition at 0.1 µM: read-out: % Inhibition of 5α-reductase, [I] 100 nM
T4 sequence (P31213 1-254): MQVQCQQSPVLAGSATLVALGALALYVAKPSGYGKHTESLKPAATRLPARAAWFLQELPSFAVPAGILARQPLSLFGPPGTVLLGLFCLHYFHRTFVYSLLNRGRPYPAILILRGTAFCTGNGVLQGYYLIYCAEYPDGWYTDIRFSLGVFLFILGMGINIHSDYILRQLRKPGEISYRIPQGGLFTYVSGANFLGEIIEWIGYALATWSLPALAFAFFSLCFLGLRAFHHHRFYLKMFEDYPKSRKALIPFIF

[5] = Table 1, NI = no inhibition, read-out: IC50 17α-OHase
[6] = Table 1, NI = no inhibition, CI = complete inhibition, read-out: IC50 C17,20 lyase

## C[C@]12CC[C@H]3[C@@H](CC=C4C[C@@H](O)CC[C@@]43C)[C@@H]1CC[C@@H]2[C@@]1(C)CO1 [Compound I-8]
[1]
  inhibition of 17α-hydroxylase/C17,20-lyase (in words): significant inhibition
[2]; [5]
  IC50: 110 nM
[3]; [6]
  IC50: 140 nM
[4]; read-out: % Inhibition of 5α-reductase, [I] 10 nM
  inhibition at 0.01 µM: 11.8%
[4]
  inhibition at 0.1 µM: 16.3%

## C[C@@H](O)[C@H]1CC[C@H]2[C@@H]3CC=C4C[C@@H](O)CC[C@]4(C)[C@H]3CC[C@]12C [Compound I-20]
[1]
  inhibition of 17α-hydroxylase/C17,20-lyase (in words): potent inhibition
[2]; IC50 17α-OHase
  IC50: 180 nM
[3]; IC50 C17,20 lyase
  IC50: 190 nM
[4]; NI = no inhibition
  inhibition of 5α-reductase (in words): neither showed activity against 5α-reductase

## CN(C=O)[C@H]1CC[C@H]2[C@@H]3CCC4=CC(=O)CC[C@]4(C)[C@H]3CC[C@]12C [Compound I-40]
[1]; vs I-16
  fold lower inhibition than I-16: approximately 4 fold
[2]; [5]
  IC50: 760 nM
[3]; [6]
  IC50: 680 nM
[4]; IC50 5α-reductase, Table 2
  IC50: 150 nM

## CC(=NO)[C@H]1CC[C@H]2[C@@H]3CCC4=CC(=NO)CC[C@]4(C)[C@H]3CC[C@]12C [Compound I-42]
[1]
  inhibition of 17α-hydroxylase/C17,20-lyase (in words): decreased activity
[2]; [5]
  IC50: 210 nM
[3]; [6]
  IC50: 220 nM
[4]; NI = no inhibition
  inhibition of 5α-reductase (in words): decreased activity
[4]; read-out: IC50 5α-reductase, Table 2
  IC50: 2060 nM

## C[C@H](c1c[nH]cn1)[C@H]1CC[C@H]2[C@@H]3CCC4=CC(=O)CC[C@]4(C)[C@H]3CC[C@]12C [Compound I-45]
[1]
  inhibition of 17α-hydroxylase/C17,20-lyase (in words): did not show any activity
[2]; [5]
  IC50: > 30000 nM
[3]; [6]
  IC50: > 30000 nM

## C[C@]12CC[C@H]3[C@@H](CC=C4C[C@@H](O)CC[C@@]43C)[C@@H]1CC[C@@H]2c1ncc[nH]1 [Compound L-1]
[1]
  inhibition of 17α-hydroxylase/C17,20-lyase (in words): poor inhibition of 17α-hydroxylase/C17,20 -lyase
[2]; 100 nM, first figure of pair, read-out: % Inhibition 17α-hydroxylase, [I] = 100 nM
  inhibition at 0.1 µM: 22.8%
[2]; 400 nM, first figure of pair, read-out: % Inhibition 17α-hydroxylase, [I] = 400 nM
  inhibition at 0.4 µM: 23.7%
[3]; 100 nM, second figure of pair, read-out: % Inhibition C17,20-lyase, [I] = 100 nM
  inhibition at 0.1 µM: 73.9%
[3]; 400 nM, second figure of pair, read-out: % Inhibition C17,20-lyase, [I] = 400 nM
  inhibition at 0.4 µM: 100%

## CC(=NO)C1=CC[C@H]2[C@@H]3CCC4=CC(=O)CC[C@]4(C)[C@H]3CC[C@]12C [Compound L-2, 16-dehydroprogesterone-20-oxime]
[1]
  inhibition of 17α-hydroxylase/C17,20-lyase (in words): potent inhibitors of both enzymes
[1]; vs I-5
  stronger activity than I-5 against 17α-hydroxylase/C17,20-lyase: twofold stronger activity
[1]; vs ketoconazole
  times more potent than ketoconazole: 10-50 times
[2]; [5]
  IC50: 8.7 nM
[2]; Table 3, first figure of 17α-hydroxylase/lyase pair, read-out: IC50 17α-hydroxylase
  IC50: 8.65 nM
[2]; first figure of pair, read-out: IC50 17α-hydroxylase
  IC50: 6 nM
[3]; second figure of pair, read-out: IC50 C17,20-lyase
  IC50: 5 nM
[4]; IC50 5α-reductase
  IC50: 52.5 nM
[4]; IC50 5α-reductase, Table 2
  IC50: 52 nM
[4]; IC50 5α-reductase, Table 3, NI = no inhibition
  IC50: 52.5 nM
[4]; NI = no inhibition
  inhibition of 5α-reductase (in words): potent inhibition of 5α-reductase; also recorded: potent inhibitor of human 5α-reductase
[4]
  inhibition at 0.1 µM: 45.5%
[4]; vs finasteride
  times less potent than finasteride (5α-reductase): 4-6 times
